Where “and” joins values, the source holds several entries; their conditions need not be identical. Equal entries are not always repeated. Numbered stars: 1 amine (or outer) side, 2 acyl side, 3 side chain; on linkers, the order of the positions; unused ones are H or OH. Bridge positions count the residues as written; N and C are the ends. Square brackets hold non-standard residues; d marks the D form. Peptide text beside a SMILES is read from it. I, II: the chains in the order shown. ξ: configuration not given here. Actinocin(9to1) = Cc1c2oc3c(C)ccc(C(=O)[*:1])c3nc-2c(C(=O)[*:2])c(N)c1=O; aThr = C[C@H](O)[C@H](N)C(=O)O; NMeV = CN[C@H](C(=O)O)C(C)C; Ac5c = NC1(C(=O)O)CCCC1; ξS = NC(CO)C(=O)O; Sar = CNCC(=O)O
System: Swiss mice, Sarcoma 180 sc, mean tumor weight T/C
Assay: NCI In Vivo Anticancer Drug Screen. Data for tumor model Sarcoma 180 (subcutaneous) in Swiss mice
Details: endpoint: mean tumor weight, higher = larger tumour
In short: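 Tumor-bearing mice, transplantable tumor; readout survival or tumor size; result = T/C, treated vs vehicle control.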

[1] = dose: 125.0 mg/kg/injection, schedule: Q01DX007 (ip), vehicle: carboxymethylcellulose (CMC)
[2] = dose: 250.0 mg/kg/injection, schedule: Q01DX007 (ip), vehicle: carboxymethylcellulose (CMC)
[3] = dose: 110.0 mg/kg/injection, schedule: Q01DX007 (ip), vehicle: carboxymethylcellulose (CMC)

Cc1c2oc3c(C)ccc(C(=O)N[C@@H]4C(=O)N[C@H](C(C)C)C(=O)N5CCC[C@H]5C(=O)N(C)CC(=O)N(C)[C@@H](C(C)C)C(=O)O[C@H]4C)c3nc-2c(C(=O)N[C@@H]2C(=O)N[C@H](C(C)C)C(=O)N3CCC[C@H]3C(=O)N(C)CC(=O)N(C)[C@@H](C(C)C)C(=O)O[C@H]2C)c(N)c1=O (I: [aThr][dV]P[Sar][NMeV] / II: [aThr][dV]P[Sar][NMeV]; ester I:1-I:C, II:1-II:C; linker I:N-II:N via Actinocin(9to1)) was tested. Which T/C (dose: 4.0 mg/kg/injection, schedule: Q#A X014 (ip), vehicle: carboxymethylcellulose (CMC)) did it give?
Its T/C is 105 % of control.

What about the T/C (dose: 7.5 mg/kg/injection, schedule: Q#A X014 (ip), vehicle: carboxymethylcellulose (CMC)) of the same molecule?
The T/C was 71 % of control.

And the T/C (dose: 12.0 mg/kg/injection, schedule: Q#A X014 (ip), vehicle: carboxymethylcellulose (CMC))?
The T/C was 70 % of control.

What about the T/C (dose: 15.0 mg/kg/injection, schedule: Q#A X014 (ip), vehicle: carboxymethylcellulose (CMC)) of the same molecule?
Its T/C is 47 % of control and 71 % of control.

What about the T/C (dose: 20.0 mg/kg/injection, schedule: Q#A X014 (ip), vehicle: carboxymethylcellulose (CMC)) of the same molecule?
Its T/C is 51 % of control.

What about the T/C (dose: 30.0 mg/kg/injection, schedule: Q#A X014 (ip), vehicle: carboxymethylcellulose (CMC)) of the same molecule?
The T/C was 13 % of control and 24 % of control.

For CS(=O)(=O)OCC(O)C(O)COS(C)(=O)=O (stereo unspecified), which T/C [1] is on record?
Its T/C is 74 % of control.

What about the T/C [2] of the same molecule?
Its T/C is 65 % of control.

What about the T/C (dose: 500.0 mg/kg/injection, schedule: Q01DX007 (ip), vehicle: carboxymethylcellulose (CMC)) of the same molecule?
The T/C was 51 % of control.

What about the T/C (dose: 1000.0 mg/kg/injection, schedule: Q01DX007 (ip), vehicle: carboxymethylcellulose (CMC)) of the same molecule?
The T/C was 45 % of control.

Which T/C (dose: 150.0 mg/kg/injection, schedule: Q#A X014 (ip), vehicle: saline) does the source give for OC1C(O)C(O)C2(CO2)C(O)C1O (stereo unspecified) here?
Its T/C is 122 % of control.

What about the T/C (dose: 300.0 mg/kg/injection, schedule: Q#A X014 (ip), vehicle: saline) of the same molecule?
The T/C was 79 % of control.

For NC(CO)C(=O)NC1(C(=O)O)CCCC1 (stereo unspecified) (H-[ξS]-[Ac5c]-OH), which T/C [3] is on record?
Its T/C is 84 % of control.

What about the T/C (dose: 167.0 mg/kg/injection, schedule: Q01DX007 (ip), vehicle: carboxymethylcellulose (CMC)) of the same molecule?
Its T/C is 49 % of control.

And the T/C [2]?
The T/C was 21 % of control.

What does the source list for COc1cc(C(=O)CC2CCCCN2)ccc1O (stereo unspecified)?
T/C (dose: 55.0 mg/kg/injection, schedule: Q01DX007 (ip), vehicle: saline): 62 % of control; T/C (dose: 83.0 mg/kg/injection, schedule: Q01DX007 (ip), vehicle: saline): 120 % of control; T/C (dose: 125.0 mg/kg/injection, schedule: Q01DX007 (ip), vehicle: saline): 95 % of control and 96 % of control; T/C (dose: 250.0 mg/kg/injection, schedule: Q01DX007 (ip), vehicle: saline): 83 % of control

CC(=O)N[C@H]1CC[C@H]2[C@@H]3CCC4=CC(=O)CC[C@]4(C)[C@H]3CC[C@]12C was tested. Which T/C (dose: 5.0 mg/kg/injection, schedule: Q#A X014 (sc), vehicle: steriod suspending solution) did it give?
Its T/C is 105 % of control.

What about the T/C (dose: 50.0 mg/kg/injection, schedule: Q#A X014 (sc), vehicle: steriod suspending solution) of the same molecule?
Its T/C is 94 % of control.

And the T/C (dose: 100.0 mg/kg/injection, schedule: Q#A X014 (sc), vehicle: steriod suspending solution)?
Its T/C is 78 % of control.

COS(C)(=O)=O was tested. Which T/C (dose: 25.0 mg/kg/injection, schedule: Q01DX007 (ip), vehicle: carboxymethylcellulose (CMC)) did it give?
Its T/C is 89 % of control.

And the T/C (dose: 50.0 mg/kg/injection, schedule: Q01DX007 (ip), vehicle: carboxymethylcellulose (CMC))?
The T/C was 66 % of control.

For CC(C)=CCC/C(C)=C/CO, which T/C (dose: 7.8 mg/kg/injection, schedule: Q01DX007 (ip), vehicle: saline) is on record?
Its T/C is 83 % of control.

And the T/C (dose: 15.6 mg/kg/injection, schedule: Q01DX007 (ip), vehicle: saline)?
Its T/C is 83 % of control.

And the T/C (dose: 31.3 mg/kg/injection, schedule: Q01DX007 (ip), vehicle: saline)?
Its T/C is 110 % of control.

What about the T/C (dose: 62.5 mg/kg/injection, schedule: Q01DX007 (ip), vehicle: saline) of the same molecule?
Its T/C is 90 % of control.

With CC(=O)Nc1ccc2c(c1)Cc1cc(NC=O)ccc1-2 as the molecule, how does the T/C [3] read?
The T/C was 54 % of control and 72 % of control.

What about the T/C (dose: 165.0 mg/kg/injection, schedule: Q01DX007 (ip), vehicle: carboxymethylcellulose (CMC)) of the same molecule?
Its T/C is 87 % of control.

And the T/C [2]?
Its T/C is 46 % of control.

What about the T/C (dose: 375.0 mg/kg/injection, schedule: Q01DX007 (ip), vehicle: carboxymethylcellulose (CMC)) of the same molecule?
Its T/C is 79 % of control.

Which T/C (dose: 1.5 mg/kg/injection, schedule: Q01DX007 (ip), vehicle: carboxymethylcellulose (CMC)) does the source give for CCc1nc(N)nc(N)c1-c1ccc(Cl)c(Cl)c1.O.O.[Zn] here?
Its T/C is 62 % of control.

And the T/C (dose: 2.3 mg/kg/injection, schedule: Q01DX007 (ip), vehicle: carboxymethylcellulose (CMC))?
Its T/C is 65 % of control.

And the T/C (dose: 3.5 mg/kg/injection, schedule: Q01DX007 (ip), vehicle: carboxymethylcellulose (CMC))?
The T/C was 46 % of control.

What about the T/C (dose: 8.0 mg/kg/injection, schedule: Q01DX007 (ip), vehicle: carboxymethylcellulose (CMC)) of the same molecule?
The T/C was 39 % of control.

And the T/C (dose: 12.0 mg/kg/injection, schedule: Q01DX007 (ip), vehicle: carboxymethylcellulose (CMC))?
Its T/C is 18 % of control.

With CC1CN1P(=O)(N1CCCC1)N1CC1C (stereo unspecified) as the molecule, how does the T/C (dose: 15.5 mg/kg/injection, schedule: Q#A X014 (ip), vehicle: saline) read?
The T/C was 27 % of control and 48 % of control.

And the T/C (dose: 23.5 mg/kg/injection, schedule: Q#A X014 (ip), vehicle: saline)?
Its T/C is 4 % of control.

And the T/C (dose: 31.0 mg/kg/injection, schedule: Q01DX007 (ip), vehicle: saline)?
Its T/C is 77 % of control.

And the T/C (dose: 47.0 mg/kg/injection, schedule: Q01DX007 (ip), vehicle: saline)?
The T/C was 100 % of control.

And the T/C (dose: 70.0 mg/kg/injection, schedule: Q01DX007 (ip), vehicle: saline)?
The T/C was 50 % of control.

Which results are given for NCC(O)c1ccc(O)c(O)c1 (stereo unspecified)?
T/C (dose: 3.1 mg/kg/injection, schedule: Q01DX007 (ip), vehicle: saline): 84 % of control; T/C (dose: 12.5 mg/kg/injection, schedule: Q01DX007 (ip), vehicle: saline): 57 % of control and 77 % of control

Which T/C (dose: 147.0 mg/kg/injection, schedule: Q01DX007 (ip), vehicle: carboxymethylcellulose (CMC)) does the source give for O=C(CCBr)N1CCCN(C(=O)CCBr)CC1 here?
The T/C was 49 % of control.

What about the T/C (dose: 223.0 mg/kg/injection, schedule: Q01DX007 (ip), vehicle: carboxymethylcellulose (CMC)) of the same molecule?
The T/C was 46 % of control.

Clc1ccc2c(c1)Cc1cc(N=Cc3ccccc3Cl)ccc1-2 was tested. Which T/C (dose: 42.0 mg/kg/injection, schedule: Q01DX007 (ip), vehicle: other) did it give?
The T/C was 77 % of control.

And the T/C (dose: 64.0 mg/kg/injection, schedule: Q01DX007 (ip), vehicle: other)?
Its T/C is 108 % of control.

And the T/C (dose: 66.0 mg/kg/injection, schedule: Q01DX007 (ip), vehicle: saline)?
The T/C was 57 % of control.

What about the T/C (dose: 99.0 mg/kg/injection, schedule: Q01DX007 (ip), vehicle: saline) of the same molecule?
Its T/C is 52 % of control.

And the T/C (dose: 148.0 mg/kg/injection, schedule: Q01DX007 (ip), vehicle: saline)?
Its T/C is 38 % of control.

And the T/C (dose: 222.0 mg/kg/injection, schedule: Q01DX007 (ip), vehicle: other)?
The T/C was 42 % of control and 46 % of control.

And the T/C (dose: 222.0 mg/kg/injection, schedule: Q01DX007 (ip), vehicle: saline)?
The T/C was 31 % of control.

What about the T/C (dose: 333.0 mg/kg/injection, schedule: Q01DX007 (ip), vehicle: other) of the same molecule?
The T/C was 20 % of control and 40 % of control.

And the T/C (dose: 492.0 mg/kg/injection, schedule: Q01DX007 (ip), vehicle: carboxymethylcellulose (CMC))?
Its T/C is 40 % of control.

What about the T/C (dose: 500.0 mg/kg/injection, schedule: Q01DX007 (ip), vehicle: other) of the same molecule?
The T/C was 22 % of control.

What about the T/C (dose: 750.0 mg/kg/injection, schedule: Q01DX007 (ip), vehicle: carboxymethylcellulose (CMC)) of the same molecule?
Its T/C is 31 % of control.

And the T/C (dose: 750.0 mg/kg/injection, schedule: Q01DX007 (ip), vehicle: other)?
Its T/C is 20 % of control.

How did the T/C (dose: 62.5 mg/kg/injection, schedule: Q01DX007 (ip), vehicle: carboxymethylcellulose (CMC)) turn out when O=C1Nc2ccccc2/C1=C/c1cccnc1 was run?
Its T/C is 100 % of control.

And the T/C [1]?
The T/C was 79 % of control.

And the T/C [2]?
Its T/C is 43 % of control.

Reference: PubChem BioAssay AID342 (DTP/NCI, 2004)
